Laboratory results taken from patent US20250320250A1, “PHARMACEUTICAL COMPOSITIONS FOR THE TREATMENT OF VISCERAL PAIN” (Ironwood Pharmaceuticals, Inc., priority 2021, published 2025).

System: visceral hypersensitivity and bladder dysfunction
Experiment: Nonclinical pharmacology models of visceral hypersensitivity and bladder dysfunction
Type: in vivo
Conditions: doses above 10 μg/kg/day
Experimental: The peptide of the present disclosure doses of 100 μg and 300 μg were selected based on nonclinical pharmacology models of visceral hypersensitivity and bladder dysfunction using the peptide of the present disclosure and another GC-C agonist, linaclotide, with similar activity. […] The human equivalent daily dose (HED) extrapolated from pharmacologically active dose levels in nonclinical models is 180 μg to 600 μg (based on body weight) and 15 μg to 100 μg based on body surface area. Choosing 2 doses for investigation in this study should allow for observation of a dose response.

peptide of the present disclosure: GC-C agonist peptide, active pharmaceutical ingredient of the rectal foam composition (CXELCCNVACYGC; not fully specified; SITE 2 X is a homocysteine contributing to a cystathionine unit (linking the homocysteine at residue 2 and cysteine at residue 10 via a thioether bond); DISULFID 1..6 Intrachain; DISULFID 5..13 Intrachain; CROSSLNK 2..10 homocysteine at position 2 and the cysteine at position 10 are connected by an internal sulfide (or thioether bond); SITE 1 Optionally acetylated N-terminus)
benefit at higher doses: diminishing benefit
